In PMC11423509, “Structural basis of Pseudomonas aeruginosa penicillin binding protein 3 inhibition by the siderophore-antibiotic cefiderocol” (Chemical Science, 2024):
Like-named read-outs stand apart in the source and are kept apart here.

Legend:
P. aeruginosa PBP3 [1] = biological target: T1, P. aeruginosa PBP3 (Pseudomonas aeruginosa, UniProt G3XD46); assay: biochemical; settings: 300 nM PBP3, 1.5 mM S2d, 0.5 mM mBBr; 10 min pre-incubation at 30 °C; mean ± standard error of three independent experiments; read-out: pIC50 (S2d, n = 3) (converted)
T1 construct: A gene encoding ftsI (PBP3, residues 50–579) from P. aeruginosa PAO1; made in house; host or cells: E. coli BL21(DE3)
T1 sequence (G3XD46 50-579): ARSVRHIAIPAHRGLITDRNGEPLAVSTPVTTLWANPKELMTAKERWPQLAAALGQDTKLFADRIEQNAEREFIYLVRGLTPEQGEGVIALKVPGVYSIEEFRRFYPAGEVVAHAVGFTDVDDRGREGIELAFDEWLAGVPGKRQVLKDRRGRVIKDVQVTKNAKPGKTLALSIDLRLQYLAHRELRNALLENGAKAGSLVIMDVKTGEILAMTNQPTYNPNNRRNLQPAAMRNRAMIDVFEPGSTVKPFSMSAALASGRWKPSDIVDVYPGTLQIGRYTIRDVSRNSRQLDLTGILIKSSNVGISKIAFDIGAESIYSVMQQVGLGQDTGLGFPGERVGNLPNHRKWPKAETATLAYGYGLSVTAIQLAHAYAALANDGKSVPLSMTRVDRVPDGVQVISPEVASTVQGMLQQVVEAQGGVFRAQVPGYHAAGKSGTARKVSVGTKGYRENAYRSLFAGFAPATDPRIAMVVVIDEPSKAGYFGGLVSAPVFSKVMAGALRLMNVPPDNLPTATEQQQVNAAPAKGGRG
Excerpt: (§1) PBP3 transpeptidases are proposed to be key targets for the cephalosporins and most other β-lactam antibiotics.[13] […] In one method, the thioester substrate analogue S2d is hydrolysed by PBP3 (ESI Scheme S1 ^†) releasing D-alanine and a free thiol.[15,16] The latter reacts with monobromobimane (mBBr), a fluorescent dye, enabling measurement of the turnover rate and determination of pIC50 values.
A positive control without inhibitor and a negative control lacking both enzyme and inhibitor were prepared. […]
(§2) independent repeats are shown. Error bars represent standard deviations from three technical replicates measured simultaneously. Average pIC50 values and inhibitor structures are provided […]
(§3) (1 picture or pasted object on this page, not shown here)

P. aeruginosa PBP3 [2] = biological target: T1, P. aeruginosa PBP3; assay: biochemical; format: binding; settings: 311 nM PBP3, 30 nM Bocillin-FL; 10 min pre-incubation at 30 °C; mean ± standard error of three independent experiments; read-out: pIC50 (bocillin, n = 3) (converted)
Excerpt: as §1
A positive control without inhibitor and a negative control lacking both enzyme and inhibitor were prepared. In both cases the inhibitor/enzyme solution was replaced with an equal volume of buffer. Following incubation of the inhibitor with PBP3, Bocillin-FL (30 nM) was dispensed to initiate the reaction. Following a further incubation (10 min, 30 °C, 300 rpm) the fluorescence polarisation was measured using a BMG PHERAstar Microplate Reader (λEx/λEm = 480/520 nm) using black 384-well microplates (Greiner). The percentage inhibition of Bocillin-FL binding was calculated for each compound concentration by normalising with control wells. These measurements were used to calculate relative pIC50 values using the log([inhibitor]) against normalised response, fit, using GraphPad Prism version 10.2 (ESI Fig. S7 ^†).
Figure S7: Dose response curves for (A) cefiderocol, (B) ceftazidime, (C) cefepime and […]
assays were carried out with 311 nM PBP3 and 30 nM Bocillin-FL, with 10 minute pre-incubation with inhibitor compounds in 50 mM potassium phosphate, pH 7.4. […]
as §2, §3

P. aeruginosa PBP3 [3] = biological target: T1, P. aeruginosa PBP3; assay: Meropenem competition binding experiment, PBP3-observed mass spectrometry; settings: 1 : 1 mixture of cephalosporin and meropenem (1 mM of each), 100 μM PBP3, 10 minutes co-incubation, quenched with formic acid
Procedure: To further probe the relative rates of reaction of the four β-lactams with PBP3, a competitive binding experiment employing PBP3-observed mass spectrometry (MS) was developed. […] Following 10 minutes co-incubation with PBP3, the reactions were quenched with formic acid and analysed by protein-observed MS (under denaturing conditions) (Fig. 1).
The spectra shown are representative of three technical repeats.
Samples were then diluted in LC-MS-grade water (15 μM final concentration) and analysed using a Waters XeVo G2-S mass spectrometer coupled to a Waters Acquity-UPLC. 5 μL samples were injected onto a ThermoFisher Scientific ProSwift RP-4H (1 mm × 50 mm) column pre-equilibrated in 95%v/v water, 5%v/v MeCN. The column was eluted with a linear gradient from 5 to 95v/v% MeCN in water over ten minutes. All solvents contained 0.1%v/v formic acid. Data were analysed using MassLynx Version 4.1. The mass spectra obtained were deconvoluted using the MaxEnt1 algorithm.

PBP3 = tested on: PBP3; set-up: method as in earlier work; settings: Bocillin-FL assay under different conditions; ref 20 (Shapiro et al.); cited from earlier work

## CO/N=C(\C(=O)N[C@@H]1C(=O)N2C(C(=O)[O-])=C(C[N+]3(C)CCCC3)CS[C@H]12)c1csc(N)n1 [Cefepime, cefepime]
P. aeruginosa PBP3 [1]
  IC50: 0.0398 µM
P. aeruginosa PBP3 [2]
  IC50: 0.1 µM
P. aeruginosa PBP3 [3]
  PBP3 complex formed in competition with meropenem (protein-observed MS): ∼1 : 1 mixture of cefepime and meropenem modified PBP

## CC(C)(O/N=C(\C(=O)N[C@@H]1C(=O)N2C(C(=O)[O-])=C(C[n+]3ccccc3)CS[C@H]12)c1csc(N)n1)C(=O)O [Ceftazidime, ceftazidime]
P. aeruginosa PBP3 [1]
  IC50: 0.0794 µM
P. aeruginosa PBP3 [2]
  IC50: 0.251 µM
P. aeruginosa PBP3 [3]
  PBP3 complex formed in competition with meropenem (protein-observed MS): exclusively meropenem-modified PBP3
PBP3
  PBP3 inhibition relative to meropenem: more inhibition with ceftazidime than meropenem

## CC(C)(O/N=C(\C(=O)N[C@@H]1C(=O)N2C(C(=O)[O-])=C(C[N+]3(CCNC(=O)c4ccc(O)c(O)c4Cl)CCCC3)CS[C@H]12)c1csc(N)n1)C(=O)O [Cefiderocol, cefiderocol]
P. aeruginosa PBP3 [1]
  IC50: 0.0501 µM
P. aeruginosa PBP3 [2]
  IC50: 0.1 µM
P. aeruginosa PBP3 [3]
  PBP3 complex formed in competition with meropenem (protein-observed MS): a small amount of cefiderocol modified PBP3 was observed
